Measured values taken from paper PMC11846820, “Inhibition of DYRK1B BY C81 impedes inflammatory processes in leukocytes by reducing STAT3 activity” (Cellular and Molecular Life Sciences: CMLS, 2025).

Experiments:
Assay in all cases: NanoBRET target engagement (tracer displacement) in intact HEK293T cells
Assay type in all cases: cell-based
[1] = molecular target: T1, CLK1 (Homo sapiens, UniProt P49759)
T1 construct: Full-length, terminal NanoLuc fusion

[2] = molecular target: T2, DYRK1B (Homo sapiens, UniProt Q9Y463)
T2 construct: Full-length, terminal NanoLuc fusion
T2 sequence (Q9Y463 whole entry, the tested form may be a part): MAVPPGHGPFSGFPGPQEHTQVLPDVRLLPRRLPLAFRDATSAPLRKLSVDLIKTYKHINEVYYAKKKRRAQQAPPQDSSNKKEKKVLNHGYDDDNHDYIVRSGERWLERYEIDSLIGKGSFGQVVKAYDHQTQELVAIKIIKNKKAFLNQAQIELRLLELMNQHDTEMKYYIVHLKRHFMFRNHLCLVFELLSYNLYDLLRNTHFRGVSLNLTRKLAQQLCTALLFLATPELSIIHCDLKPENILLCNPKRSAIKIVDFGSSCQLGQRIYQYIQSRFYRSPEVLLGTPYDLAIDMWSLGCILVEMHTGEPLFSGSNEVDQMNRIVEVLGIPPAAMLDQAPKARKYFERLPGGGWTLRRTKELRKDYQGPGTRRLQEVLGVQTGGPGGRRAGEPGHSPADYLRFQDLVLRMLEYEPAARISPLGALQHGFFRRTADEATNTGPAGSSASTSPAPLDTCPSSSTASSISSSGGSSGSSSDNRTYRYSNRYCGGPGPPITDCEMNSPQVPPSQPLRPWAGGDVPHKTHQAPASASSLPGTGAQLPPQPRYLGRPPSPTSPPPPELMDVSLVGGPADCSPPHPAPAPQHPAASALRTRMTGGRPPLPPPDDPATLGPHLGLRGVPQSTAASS

[3] = molecular target: T3, DYRK2 (Homo sapiens, UniProt Q92630)
T3 construct: Full-length, terminal NanoLuc fusion
T3 sequence (Q92630 1-601): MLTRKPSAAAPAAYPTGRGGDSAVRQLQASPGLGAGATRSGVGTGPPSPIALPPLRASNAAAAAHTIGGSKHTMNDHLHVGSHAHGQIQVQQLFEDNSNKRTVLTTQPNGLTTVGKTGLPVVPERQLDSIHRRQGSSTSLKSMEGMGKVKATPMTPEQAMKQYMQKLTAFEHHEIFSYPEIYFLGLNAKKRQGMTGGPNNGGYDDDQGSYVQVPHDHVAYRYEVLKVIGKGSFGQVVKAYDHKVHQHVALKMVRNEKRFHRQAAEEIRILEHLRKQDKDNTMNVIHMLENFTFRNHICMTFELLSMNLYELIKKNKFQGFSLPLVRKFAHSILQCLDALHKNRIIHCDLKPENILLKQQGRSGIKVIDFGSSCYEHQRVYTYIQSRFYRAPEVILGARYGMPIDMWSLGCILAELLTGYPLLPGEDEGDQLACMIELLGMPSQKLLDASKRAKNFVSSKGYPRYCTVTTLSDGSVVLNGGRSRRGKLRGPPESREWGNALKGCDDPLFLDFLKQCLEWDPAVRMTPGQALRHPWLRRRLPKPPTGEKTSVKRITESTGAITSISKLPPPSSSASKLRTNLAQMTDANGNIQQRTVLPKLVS

[4] = molecular target: T4, CLK2 (Homo sapiens, UniProt P49760)
T4 construct: Full-length, terminal NanoLuc fusion
T4 sequence (P49760 whole entry, the tested form may be a part): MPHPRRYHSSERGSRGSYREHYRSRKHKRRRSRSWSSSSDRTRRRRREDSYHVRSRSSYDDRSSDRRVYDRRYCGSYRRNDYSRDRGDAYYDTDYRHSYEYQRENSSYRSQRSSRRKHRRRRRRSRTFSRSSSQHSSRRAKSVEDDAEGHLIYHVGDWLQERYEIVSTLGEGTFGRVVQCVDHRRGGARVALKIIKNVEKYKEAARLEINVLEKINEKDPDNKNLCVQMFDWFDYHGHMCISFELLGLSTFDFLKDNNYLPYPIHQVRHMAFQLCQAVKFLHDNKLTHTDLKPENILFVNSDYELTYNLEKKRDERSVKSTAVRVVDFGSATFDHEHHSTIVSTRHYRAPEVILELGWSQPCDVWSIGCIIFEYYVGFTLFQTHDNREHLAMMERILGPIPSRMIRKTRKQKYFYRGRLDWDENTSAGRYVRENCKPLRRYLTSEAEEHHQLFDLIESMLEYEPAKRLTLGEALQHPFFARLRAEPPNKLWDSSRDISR

[5] = molecular target: T5, CLK4 (Homo sapiens, UniProt Q9HAZ1)
T5 construct: Full-length, terminal NanoLuc fusion
T5 sequence (Q9HAZ1 whole entry, the tested form may be a part): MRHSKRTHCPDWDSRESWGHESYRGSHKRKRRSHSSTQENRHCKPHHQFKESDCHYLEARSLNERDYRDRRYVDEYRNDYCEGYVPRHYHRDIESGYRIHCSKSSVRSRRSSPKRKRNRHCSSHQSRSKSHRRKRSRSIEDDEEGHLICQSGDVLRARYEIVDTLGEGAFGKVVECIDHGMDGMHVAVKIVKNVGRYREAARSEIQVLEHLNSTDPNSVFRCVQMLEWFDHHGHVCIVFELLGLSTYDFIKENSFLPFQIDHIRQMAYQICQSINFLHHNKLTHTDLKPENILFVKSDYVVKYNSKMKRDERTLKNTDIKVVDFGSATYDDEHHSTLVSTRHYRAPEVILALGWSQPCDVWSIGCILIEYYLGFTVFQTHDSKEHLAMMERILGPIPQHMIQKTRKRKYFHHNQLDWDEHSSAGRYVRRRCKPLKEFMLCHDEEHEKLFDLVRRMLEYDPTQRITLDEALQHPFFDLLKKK

[6] = molecular target: T6, DYRK1A (Homo sapiens, UniProt Q13627)
T6 construct: Full-length, terminal NanoLuc fusion

T1 sequence (P49759 whole entry, the tested form may be a part): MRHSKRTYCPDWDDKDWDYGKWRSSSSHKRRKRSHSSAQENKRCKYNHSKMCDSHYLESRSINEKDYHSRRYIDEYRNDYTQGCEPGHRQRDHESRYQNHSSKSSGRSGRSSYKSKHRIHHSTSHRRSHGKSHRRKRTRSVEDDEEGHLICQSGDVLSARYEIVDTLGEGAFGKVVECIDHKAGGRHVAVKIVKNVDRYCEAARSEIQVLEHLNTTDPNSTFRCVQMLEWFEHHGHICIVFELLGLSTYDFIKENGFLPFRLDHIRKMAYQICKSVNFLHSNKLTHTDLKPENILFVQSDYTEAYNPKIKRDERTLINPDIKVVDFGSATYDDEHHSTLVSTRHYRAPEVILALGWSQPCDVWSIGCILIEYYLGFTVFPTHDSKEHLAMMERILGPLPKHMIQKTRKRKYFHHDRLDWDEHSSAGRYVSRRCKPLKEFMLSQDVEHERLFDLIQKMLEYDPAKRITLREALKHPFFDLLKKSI

Cc1nccc(-c2cn(Cc3ccccc3)c3cnccc23)n1 [AZ-DYRK1B-33]
EC50 [1]: 299 nM | EC50 [2]: 537 nM | EC50 [3]: 3400 nM | EC50 [4]: 5000 nM | EC50 [5]: 119 nM | EC50 [6]: 3800 nM
